# Results reported in US20020137929A1, “1 - (3-heterocyclylphenyl) isothiourea, -isourea, -guanidine and -amidine herbicidal agents” (Intellectual Property Department, BASF Aktiengesellschaft, priority 1998, published 2002).
# Columns and labels:
# [1] = system: TRZAWR (Wheat, Winter, cv Riband); experiment: Preemergence herbicidal evaluation; format: in vivo, Triticum aestivum; details: rated 4-5 weeks after treatment, rating scale 0-9
# Method in brief: (§1)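 Herbicidal effect scored visually, 0-9, at 4 to 5 weeks against a control; compound applied preemergence by aqueous acetone spray to seeded soil at about 0.0156 to 0.500 kg/ha.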
# ZEAMX (Corn, Field) [2] = experiment: Preemergence herbicidal evaluation; format: in vivo, Zea mays; details: rated 4-5 weeks after treatment, rating scale 0-9
# Method in brief: as §1
# CYPIR (Rice Flatsedge) = experiment: Preemergence weed control under flooded paddy conditions; format: in vivo, Cyperus iria; details: rated 3-4 weeks after treatment
# Method in brief: (§2)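 Ratings on a 0-9 visual scale cover stand, vigor, malformation, size, chlorosis and overall appearance relative to a control, taken three to four weeks post-treatment. Application was into flood water over freshly sown silt loam at roughly 0.0313 to 0.500 kg/ha.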
# [3] = system: ECHORC (Watergrass (Calif.)); experiment: as above; format: in vivo, Echinochloa oryzoides; details: rated 3-4 weeks after treatment
# Method in brief: as §2
# ORYSAT (Rice, Tebonnet) = experiment: Postemergence herbicidal evaluation; format: in vivo, Oryza sativa, (L.) Tebonnet; details: postemergence
# Method in brief: (§3)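 Each compound, dispersed in an acetone/water mix (50/50) carrying 0.5% TWEEN 20, is nozzle-sprayed at 40 psi on approximately two-week-old seedlings at about 0.0156–0.500 kg/ha. Plants are assessed 4–5 weeks afterward on a 0–9 scale relative to control; duplicate tests are averaged.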
# ZEAMX (Corn, Field) [4] = experiment: Postemergence herbicidal evaluation; format: in vivo, Zea mays; details: postemergence
# Method in brief: as §3
# ECHCG (Barnyardgrass) = experiment: Preemergence herbicidal evaluation; format: in vivo, Echinochloa crus-galli; details: rated 4-5 weeks after treatment, rating scale 0-9
# Method in brief: as §1
# SETVI (Foxtail, Green) [5] = experiment: Postemergence herbicidal evaluation; format: in vivo, Setaria viridis; details: postemergence
# Method in brief: as §3
# CYPSE (Flatsedge) = experiment: Preemergence weed control under flooded paddy conditions; format: in vivo, Cyperus serotinus; details: rated 3-4 weeks after treatment
# Method in brief: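 Visual injury scored 0-9 against control three to four weeks post-treatment, greenhouse-grown. Application: acetone/water (50/50) solutions dosed directly into flood water (1.5-3 cm over silt loam, planted top 0.5 cm), roughly 0.0313 to 0.500 kg/ha active ingredient.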
# SETVI (Foxtail, Green) [6] = experiment: Preemergence herbicidal evaluation; format: in vivo, Setaria viridis; details: rated 4-5 weeks after treatment, rating scale 0-9
# Method in brief: as §1
structure (smiles),measurement,setting,value
"Cc1cccc(CN2C(=O)CSC2=Nc2cc(-n3c(=O)cc(C(F)(F)F)n(C)c3=O)c(F)cc2Cl)c1 [Compound 130, 3-{4-Chloro-2-fluoro-5-{[3-(m-methylbenzyl)-4-oxo-2-thiazolidinylidene]amino}phenyl}-1-methyl-6-(trifluoromethyl)-2,4 (1H, 3H)-pyrimidinedione]",Preemergence herbicidal rating TRZAWR,[1]; rate 0.0156 kg/ha,0.0
same,Preemergence herbicidal rating TRZAWR,[1]; rate 0.0313 kg/ha,0.0
same,Preemergence herbicidal rating TRZAWR,[1]; rate 0.0625 kg/ha,1.0
same,Preemergence herbicidal rating TRZAWR,[1]; rate 0.1250 kg/ha,3.0
same,Preemergence herbicidal rating TRZAWR,[1]; rate 0.2500 kg/ha,6.0
same,Preemergence herbicidal rating ZEAMX,"ZEAMX (Corn, Field) [2]; rate 0.0156 kg/ha",0.0
same,Preemergence herbicidal rating ZEAMX,"ZEAMX (Corn, Field) [2]; rate 0.0313 kg/ha",1.0
same,Preemergence herbicidal rating ZEAMX,"ZEAMX (Corn, Field) [2]; rate 0.0625 kg/ha",4.0
same,Preemergence herbicidal rating ZEAMX,"ZEAMX (Corn, Field) [2]; rate 0.1250 kg/ha",7.0
same,Preemergence herbicidal rating ZEAMX,"ZEAMX (Corn, Field) [2]; rate 0.2500 kg/ha",9.0
same,"herbicidal effect rating, CYPIR",CYPIR (Rice Flatsedge); 0.0313 kg/ha,0.0
same,"herbicidal effect rating, CYPIR",CYPIR (Rice Flatsedge); 0.0625 kg/ha,2.0
same,"herbicidal effect rating, CYPIR",CYPIR (Rice Flatsedge); 0.1250 kg/ha,4.0
same,"herbicidal effect rating, CYPIR",CYPIR (Rice Flatsedge); 0.2500 kg/ha,6.0
same,"herbicidal effect rating, ECHORC",[3]; 0.0313 kg/ha,0.0
same,"herbicidal effect rating, ECHORC",[3]; 0.0625 kg/ha,2.0
same,"herbicidal effect rating, ECHORC",[3]; 0.1250 kg/ha,3.0
same,"herbicidal effect rating, ECHORC",[3]; 0.2500 kg/ha,4.0
same,herbicidal rating ORYSAT,"ORYSAT (Rice, Tebonnet); rate 0.0156 kg/ha",3.0
same,herbicidal rating ORYSAT,"ORYSAT (Rice, Tebonnet); rate 0.0313 kg/ha",3.0
same,herbicidal rating ORYSAT,"ORYSAT (Rice, Tebonnet); rate 0.0625 kg/ha",3.5
same,herbicidal rating ZEAMX,"ZEAMX (Corn, Field) [4]; rate 0.0156 kg/ha",4.5
same,herbicidal rating ZEAMX,"ZEAMX (Corn, Field) [4]; rate 0.0313 kg/ha",4.5
same,herbicidal rating ZEAMX,"ZEAMX (Corn, Field) [4]; rate 0.0625 kg/ha",5.0
same,Preemergence herbicidal rating ECHCG,ECHCG (Barnyardgrass); rate 0.0156 kg/ha,0.0
same,Preemergence herbicidal rating ECHCG,ECHCG (Barnyardgrass); rate 0.0313 kg/ha,0.0
same,Preemergence herbicidal rating ECHCG,ECHCG (Barnyardgrass); rate 0.0625 kg/ha,1.0
same,Preemergence herbicidal rating ECHCG,ECHCG (Barnyardgrass); rate 0.1250 kg/ha,4.0
same,Preemergence herbicidal rating ECHCG,ECHCG (Barnyardgrass); rate 0.2500 kg/ha,7.0
same,herbicidal rating SETVI,"SETVI (Foxtail, Green) [5]; rate 0.0156 kg/ha",4.0
same,herbicidal rating SETVI,"SETVI (Foxtail, Green) [5]; rate 0.0313 kg/ha",6.0
same,herbicidal rating SETVI,"SETVI (Foxtail, Green) [5]; rate 0.0625 kg/ha",7.0
same,"herbicidal effect rating, CYPSE",CYPSE (Flatsedge); 0.0313 kg/ha,5.0
same,"herbicidal effect rating, CYPSE",CYPSE (Flatsedge); 0.0625 kg/ha,5.0
same,"herbicidal effect rating, CYPSE",CYPSE (Flatsedge); 0.1250 kg/ha,0.0
same,"herbicidal effect rating, CYPSE",CYPSE (Flatsedge); 0.2500 kg/ha,7.0
same,Preemergence herbicidal rating SETVI,"SETVI (Foxtail, Green) [6]; rate 0.0156 kg/ha",0.0
same,Preemergence herbicidal rating SETVI,"SETVI (Foxtail, Green) [6]; rate 0.0313 kg/ha",6.0
same,Preemergence herbicidal rating SETVI,"SETVI (Foxtail, Green) [6]; rate 0.0625 kg/ha",7.0
same,Preemergence herbicidal rating SETVI,"SETVI (Foxtail, Green) [6]; rate 0.1250 kg/ha",7.0
same,Preemergence herbicidal rating SETVI,"SETVI (Foxtail, Green) [6]; rate 0.2500 kg/ha",9.0
"Cn1c(C(F)(F)F)cc(=O)n(-c2cc(N=C3SCC(=O)N3Cc3ccc(S(N)(=O)=O)cc3)c(Cl)cc2F)c1=O [Compound 135, Alpha-{2-{{2-chloro-5-[3,6-dihydro-3-methyl-2,6-dioxo-4-(trifluoromethyl)-1(2H)-pyrimidinyl]-4-fluorophenyl}imino}-4-oxo-3-thiazolidinyl}-p-toluenesulfonamide]",Preemergence herbicidal rating TRZAWR,[1]; rate 0.0156 kg/ha,0.0
same,Preemergence herbicidal rating TRZAWR,[1]; rate 0.0313 kg/ha,0.0
same,Preemergence herbicidal rating TRZAWR,[1]; rate 0.0625 kg/ha,0.0
same,Preemergence herbicidal rating TRZAWR,[1]; rate 0.1250 kg/ha,0.0
same,Preemergence herbicidal rating TRZAWR,[1]; rate 0.2500 kg/ha,1.0
same,Preemergence herbicidal rating ZEAMX,"ZEAMX (Corn, Field) [2]; rate 0.0156 kg/ha",1.0
same,Preemergence herbicidal rating ZEAMX,"ZEAMX (Corn, Field) [2]; rate 0.0313 kg/ha",1.0
same,Preemergence herbicidal rating ZEAMX,"ZEAMX (Corn, Field) [2]; rate 0.0625 kg/ha",0.0
same,Preemergence herbicidal rating ZEAMX,"ZEAMX (Corn, Field) [2]; rate 0.1250 kg/ha",2.0
same,Preemergence herbicidal rating ZEAMX,"ZEAMX (Corn, Field) [2]; rate 0.2500 kg/ha",1.0
same,"herbicidal effect rating, CYPIR",CYPIR (Rice Flatsedge); 0.0313 kg/ha,5.0
same,"herbicidal effect rating, CYPIR",CYPIR (Rice Flatsedge); 0.0625 kg/ha,6.0
same,"herbicidal effect rating, CYPIR",CYPIR (Rice Flatsedge); 0.1250 kg/ha,7.0
same,"herbicidal effect rating, CYPIR",CYPIR (Rice Flatsedge); 0.2500 kg/ha,7.0
same,"herbicidal effect rating, ECHORC",[3]; 0.0313 kg/ha,7.0
same,"herbicidal effect rating, ECHORC",[3]; 0.0625 kg/ha,7.0
same,"herbicidal effect rating, ECHORC",[3]; 0.1250 kg/ha,7.0
same,"herbicidal effect rating, ECHORC",[3]; 0.2500 kg/ha,9.0
same,herbicidal rating ORYSAT,"ORYSAT (Rice, Tebonnet); rate 0.0156 kg/ha",2.0
same,herbicidal rating ORYSAT,"ORYSAT (Rice, Tebonnet); rate 0.0313 kg/ha",2.0
same,herbicidal rating ORYSAT,"ORYSAT (Rice, Tebonnet); rate 0.0625 kg/ha",2.5
same,herbicidal rating ZEAMX,"ZEAMX (Corn, Field) [4]; rate 0.0156 kg/ha",3.5
same,herbicidal rating ZEAMX,"ZEAMX (Corn, Field) [4]; rate 0.0313 kg/ha",4.0
same,herbicidal rating ZEAMX,"ZEAMX (Corn, Field) [4]; rate 0.0625 kg/ha",4.0
same,Preemergence herbicidal rating ECHCG,ECHCG (Barnyardgrass); rate 0.0156 kg/ha,0.0
same,Preemergence herbicidal rating ECHCG,ECHCG (Barnyardgrass); rate 0.0313 kg/ha,0.0
same,Preemergence herbicidal rating ECHCG,ECHCG (Barnyardgrass); rate 0.0625 kg/ha,0.0
same,Preemergence herbicidal rating ECHCG,ECHCG (Barnyardgrass); rate 0.1250 kg/ha,0.0
same,Preemergence herbicidal rating ECHCG,ECHCG (Barnyardgrass); rate 0.2500 kg/ha,1.0
same,herbicidal rating SETVI,"SETVI (Foxtail, Green) [5]; rate 0.0156 kg/ha",2.0
same,herbicidal rating SETVI,"SETVI (Foxtail, Green) [5]; rate 0.0313 kg/ha",4.0
same,herbicidal rating SETVI,"SETVI (Foxtail, Green) [5]; rate 0.0625 kg/ha",6.0
same,"herbicidal effect rating, CYPSE",CYPSE (Flatsedge); 0.1250 kg/ha,0.0
same,"herbicidal effect rating, CYPSE",CYPSE (Flatsedge); 0.2500 kg/ha,0.0
same,Preemergence herbicidal rating SETVI,"SETVI (Foxtail, Green) [6]; rate 0.0156 kg/ha",0.0
same,Preemergence herbicidal rating SETVI,"SETVI (Foxtail, Green) [6]; rate 0.0313 kg/ha",0.0
same,Preemergence herbicidal rating SETVI,"SETVI (Foxtail, Green) [6]; rate 0.0625 kg/ha",2.0
same,Preemergence herbicidal rating SETVI,"SETVI (Foxtail, Green) [6]; rate 0.1250 kg/ha",4.0
same,Preemergence herbicidal rating SETVI,"SETVI (Foxtail, Green) [6]; rate 0.2500 kg/ha",7.0
